Results on six molecules are retold here after PMC4295349, “Synthetic Antimicrobial Peptides Exhibit Two Different Binding Mechanisms to the Lipopolysaccharides Isolated from Pseudomonas aeruginosa and Klebsiella pneumoniae” (International Journal of Medicinal Chemistry, 2014).

Read-outs that look alike come from different tables or passages of the source. Where a SMILES comes first, the peptide text is derived from it. [ ]: non-standard residue; d: D form. ξ: configuration not given here. Oic = O=C(O)[C@@H]1C[C@@H]2CCCC[C@@H]2N1; Oic(3aξ,7aξ) = O=C(O)[C@@H]1CC2CCCCC2N1; Tic = O=C(O)[C@@H]1Cc2ccccc2CN1; Orn = NCCC[C@H](N)C(=O)O; Dab = NCC[C@H](N)C(=O)O; Dap = NC[C@H](N)C(=O)O

Data set [1] concerns LPS isolated from P. aeruginosa or K. pneumoniae. Put plainly: Precipitation of AMP-LPS mixtures prepared for CD. To be noted: 350 μL stock LPS + 50 μL stock peptide, phosphate buffer; CD spectra could not be obtained. The class given is physicochemical. The protocol:
(§1) Peptide solutions were prepared by dissolving approximately 2 mg of AMPs 70, 74, 75, 79, or 80 in 1.0 mL of phosphate buffer. […] For the LPS liposome studies 350 μL of stock LPS solution was mixed with 50 μL of stock peptide solution. CD spectroscopy is a sensitive technique, so it is commonly used to monitor conformational changes in peptides and proteins. […] All CD spectra were obtained by acquiring 8 scans using a 0.1 mm cylindrical quartz cell with a spectral range of 260 to 195 nm (at wavelengths below 195 nm the HTV exceeded 400, and therefore data collection was terminated at 195 nm) and a scanning rate of 20 nm/min. Acquisition parameters were bandwidth 1 nm, data pitch 0.2 nm, response time 2.0 s, and 5 mdeg sensitivity. Spectra were collected at room temperature (298 K). Contributions from LPS were eliminated by subtracting from the corresponding AMP-LPS solutions. All analyses of CD spectra were conducted after smoothing with a means-movement function.

Data set [2] deals with K. pneumoniae BAMC 07-18.
Data set [3] has as its system P. aeruginosa PAO1. To be noted: for in vitro inhibitory activity: against P. aeruginosa.
The subject of data set [4] is K. pneumoniae BAMC 07-18. The class given is cell-based, Klebsiella pneumoniae. An excerpt:
Table 3 In vitro minimum inhibitory concentration (MIC) and minimum bactericide concentration (MBC) activity against K. pneumonia and P. aeruginosa. | column: K. pneumoniae BAMC 07-18 / MBC (μg/mL)/(μM)

The test system of data set [5] is P. aeruginosa PAO1. The class given is cell-based, Pseudomonas aeruginosa. An excerpt:
Table 3 In vitro minimum inhibitory concentration (MIC) and minimum bactericide concentration (MBC) activity against K. pneumonia and P. aeruginosa. | column: P. aeruginosa PAO1 / MBC (µg/mL)/(μM)

The format of data set [6] is physicochemical. The protocol: as §1
The mark [7] stands for this setting: K. pneumoniae BAMC 07-18, light face value.
The mark [8] stands for this setting: P. aeruginosa PAO1, light face value.

Consider `CC(C)C[C@H](NC(=O)[C@@H](N)CCCN)C(=O)N1Cc2ccccc2C[C@H]1C(=O)N1[C@H](C(=O)N[C@@H](CCCN)C(=O)N2Cc3ccccc3C[C@H]2C(=O)N2[C@H](C(=O)N[C@@H](Cc3ccccc3)C(=O)N3Cc4ccccc4C[C@H]3C(=O)N3[C@H](C(=O)N[C@@H](CCCN)C(=O)N4Cc5ccccc5C[C@H]4C(=O)N4[C@H](C(=O)N[C@@H](Cc5ccccc5)C(=O)N5Cc6ccccc6C[C@H]5C(=O)N5[C@H](C(=O)N[C@@H](CCCN)C(=O)N6Cc7ccccc7C[C@H]6C(=O)N6[C@H](C(=O)N[C@@H](CCCN)C(=O)N[C@@H](CCCN)C(=O)N[C@@H](CCCN)C(=O)N[C@@H](CCCN)C(N)=O)C[C@@H]7CCCC[C@@H]76)C[C@@H]6CCCC[C@@H]65)C[C@@H]5CCCC[C@@H]54)C[C@@H]4CCCC[C@@H]43)C[C@@H]3CCCC[C@@H]32)C[C@@H]2CCCC[C@@H]21` [AMP 71] (H-[Orn]L[Tic][Oic][Orn][Tic][Oic]F[Tic][Oic][Orn][Tic][Oic]F[Tic][Oic][Orn][Tic][Oic][Orn][Orn][Orn][Orn]-NH2), for which, in data set [1], the “precipitation in the presence of either LPS” value (from here on “precipitation in the presence”) is “precipitation of uncharacterized AMP-LPS complexes”. In addition, the MIC in data set [2] (BAMC 07-18) came out at 31.2 µM; in data set [2] (setting [7]), 100 µg/mL; in data set [3] (setting [8]), 100 µg/mL; in data set [3] (PAO1) it was 31.2 µM.
Regarding `CC(C)C[C@H](NC(=O)[C@@H](N)CN)C(=O)N1Cc2ccccc2C[C@H]1C(=O)N1[C@H](C(=O)N[C@@H](CN)C(=O)N2Cc3ccccc3C[C@H]2C(=O)N2[C@H](C(=O)N[C@@H](Cc3ccccc3)C(=O)N3Cc4ccccc4C[C@H]3C(=O)N3[C@H](C(=O)N[C@@H](CN)C(=O)N4Cc5ccccc5C[C@H]4C(=O)N4[C@H](C(=O)N[C@@H](Cc5ccccc5)C(=O)N5Cc6ccccc6C[C@H]5C(=O)N5[C@H](C(=O)N[C@@H](CN)C(=O)N6Cc7ccccc7C[C@H]6C(=O)N6[C@H](C(=O)N[C@@H](CN)C(=O)N[C@@H](CN)C(=O)N[C@@H](CN)C(=O)N[C@@H](CN)C(N)=O)C[C@@H]7CCCC[C@@H]76)C[C@@H]6CCCC[C@@H]65)C[C@@H]5CCCC[C@@H]54)C[C@@H]4CCCC[C@@H]43)C[C@@H]3CCCC[C@@H]32)C[C@@H]2CCCC[C@@H]21` [AMP 72] (H-[Dap]L[Tic][Oic][Dap][Tic][Oic]F[Tic][Oic][Dap][Tic][Oic]F[Tic][Oic][Dap][Tic][Oic][Dap][Dap][Dap][Dap]-NH2), the minimum bactericidal concentration (MBC) in data set [4] (BAMC 07-18) turned out to be 33.6 µM; in data set [4] (setting [7]), 100 µg/mL; in data set [5] (setting [8]), 100 µg/mL; in data set [5] (PAO1), 33.6 µM. The “precipitation in the presence” value in data set [1] was “precipitation of uncharacterized AMP-LPS complexes”. Besides, the minimum inhibitory concentration (MIC) in data set [2] (BAMC 07-18) amounted to 33.6 µM; in data set [2] (setting [7]), 100 µg/mL; in data set [3] (setting [8]) it was 50 µg/mL; in data set [3] (PAO1), 16.8 µM.
As to `CC(C)C[C@H](NC(=O)[C@@H](N)CCN)C(=O)N1Cc2ccccc2C[C@H]1C(=O)N1[C@H](C(=O)N[C@@H](CCN)C(=O)N2Cc3ccccc3C[C@H]2C(=O)N2[C@H](C(=O)N[C@@H](Cc3ccccc3)C(=O)N3Cc4ccccc4C[C@H]3C(=O)N3[C@H](C(=O)N[C@@H](CCN)C(=O)N4Cc5ccccc5C[C@H]4C(=O)N4[C@H](C(=O)N[C@@H](Cc5ccccc5)C(=O)N5Cc6ccccc6C[C@H]5C(=O)N5[C@H](C(=O)N[C@@H](CCN)C(=O)N6Cc7ccccc7C[C@H]6C(=O)N6[C@H](C(=O)N[C@@H](CCN)C(=O)N[C@@H](CCN)C(=O)N[C@@H](CCN)C(=O)N[C@@H](CCN)C(N)=O)C[C@@H]7CCCC[C@@H]76)C[C@@H]6CCCC[C@@H]65)C[C@@H]5CCCC[C@@H]54)C[C@@H]4CCCC[C@@H]43)C[C@@H]3CCCC[C@@H]32)C[C@@H]2CCCC[C@@H]21` [AMP 73] (H-[Dab]L[Tic][Oic][Dab][Tic][Oic]F[Tic][Oic][Dab][Tic][Oic]F[Tic][Oic][Dab][Tic][Oic][Dab][Dab][Dab][Dab]-NH2), the MBC was determined as 32.4 µM in data set [4] (BAMC 07-18), 100 µg/mL in data set [4] (setting [7]), 100 µg/mL in data set [5] (setting [8]) and 32.4 µM in data set [5] (PAO1). For the same molecule, in data set [1], the “precipitation in the presence” value is “precipitation of uncharacterized AMP-LPS complexes”. Also, the MIC in data set [2] (BAMC 07-18) was found to be 16.2 µM; in data set [2] (setting [7]), 50 µg/mL; in data set [3] (setting [8]), 50 µg/mL; in data set [3] (PAO1), 16.2 µM.
Regarding `CC(C)C[C@H](NC(=O)[C@@H](N)CCCCN)C(=O)N1Cc2ccccc2C[C@H]1C(=O)N1C2CCCCC2C[C@H]1C(=O)NCC(=O)N[C@@H](CCCCN)C(=O)N1Cc2ccccc2C[C@H]1C(=O)N1C2CCCCC2C[C@H]1C(=O)NCC(=O)N[C@@H](Cc1ccccc1)C(=O)N1Cc2ccccc2C[C@H]1C(=O)N1C2CCCCC2C[C@H]1C(=O)NCC(=O)N[C@@H](CCCCN)C(=O)N1Cc2ccccc2C[C@H]1C(=O)N1C2CCCCC2C[C@H]1C(=O)NCC(=O)N[C@@H](Cc1ccccc1)C(=O)N1Cc2ccccc2C[C@H]1C(=O)N1C2CCCCC2C[C@H]1C(=O)NCC(=O)N[C@@H](CCCCN)C(=O)N1Cc2ccccc2C[C@H]1C(=O)N1C2CCCCC2C[C@H]1C(=O)N[C@@H](CCCCN)C(=O)N[C@@H](CCCCN)C(=O)N[C@@H](CCCCN)C(=O)N[C@@H](CCCCN)C(N)=O` (stereo partly drawn) [AMP 76] (H-KL[Tic][Oic(3aξ,7aξ)]GK[Tic][Oic(3aξ,7aξ)]GF[Tic][Oic(3aξ,7aξ)]GK[Tic][Oic(3aξ,7aξ)]GF[Tic][Oic(3aξ,7aξ)]GK[Tic][Oic(3aξ,7aξ)]KKKK-NH2), the MBC in data set [4] (BAMC 07-18) stood at 13.9 µM; in data set [4] (setting [7]) it was 50 µg/mL; in data set [5] (setting [8]) it was 50 µg/mL; in data set [5] (PAO1), 13.9 µM. Moreover, the “solubility in phosphate buffer at approximately 2 mg in 1.0 mL” value (from here on “solubility in phosphate buffer”) in data set [6] is “solubility issues”. In addition, the MIC in data set [2] (BAMC 07-18) was found to be 13.9 µM; in data set [2] (setting [7]), 50 µg/mL; in data set [3] (setting [8]), 50 µg/mL; in data set [3] (PAO1), 13.9 µM. Also, the “in vitro inhibitory activity” value in data set [3] came out at 50 µg/mL.
With `CC(C)C[C@H](NC(=O)[C@@H](N)CCCCN)C(=O)N1Cc2ccccc2C[C@H]1C(=O)N1[C@H](C(=O)N[C@@H](CCCCN)C(=O)N2Cc3ccccc3C[C@H]2C(=O)N2[C@H](C(=O)N[C@@H](Cc3ccccc3)C(=O)NCC(=O)N3Cc4ccccc4C[C@H]3C(=O)N3[C@H](C(=O)N[C@@H](CCCCN)C(=O)N4Cc5ccccc5C[C@H]4C(=O)N4[C@H](C(=O)N[C@@H](Cc5ccccc5)C(=O)NCC(=O)N5Cc6ccccc6C[C@H]5C(=O)N5[C@H](C(=O)N[C@@H](CCCCN)C(=O)N6Cc7ccccc7C[C@H]6C(=O)N6[C@H](C(=O)N[C@@H](CCCCN)C(=O)N[C@@H](CCCCN)C(=O)N[C@@H](CCCCN)C(=O)N[C@@H](CCCCN)C(N)=O)C[C@@H]7CCCC[C@@H]76)C[C@@H]6CCCC[C@@H]65)C[C@@H]5CCCC[C@@H]54)C[C@@H]4CCCC[C@@H]43)C[C@@H]3CCCC[C@@H]32)C[C@@H]2CCCC[C@@H]21` [AMP 77] (H-KL[Tic][Oic]K[Tic][Oic]FG[Tic][Oic]K[Tic][Oic]FG[Tic][Oic]K[Tic][Oic]KKKK-NH2), the minimal bactericidal concentration (MBC) in data set [4] (BAMC 07-18) came out at 29.2 µM; in data set [4] (setting [7]) it was 100 µg/mL; in data set [5] (setting [8]), 50 µg/mL; in data set [5] (PAO1), 14.6 µM. Besides, the “solubility in phosphate buffer” value in data set [6] is given as “solubility issues”. In addition, the minimum inhibitory concentration (MIC) in data set [2] (BAMC 07-18) was 14.6 µM; in data set [2] (setting [7]) it was 50 µg/mL; in data set [3] (setting [8]), 50 µg/mL; in data set [3] (PAO1), 14.6 µM. For the same molecule, the “in vitro inhibitory activity” value in data set [3] stood at 50 µg/mL.
Regarding `CC(C)C[C@H](NC(=O)[C@@H](N)CCCCN)C(=O)N1Cc2ccccc2C[C@H]1C(=O)N1C2CCCCC2C[C@H]1C(=O)N[C@@H](CCCCN)C(=O)NCC(=O)N1Cc2ccccc2C[C@H]1C(=O)N1C2CCCCC2C[C@H]1C(=O)N[C@@H](Cc1ccccc1)C(=O)N1Cc2ccccc2C[C@H]1C(=O)N1C2CCCCC2C[C@H]1C(=O)N[C@@H](CCCCN)C(=O)NCC(=O)N1Cc2ccccc2C[C@H]1C(=O)N1C2CCCCC2C[C@H]1C(=O)N[C@@H](Cc1ccccc1)C(=O)N1Cc2ccccc2C[C@H]1C(=O)N1C2CCCCC2C[C@H]1C(=O)N[C@@H](CCCCN)C(=O)NCC(=O)N1Cc2ccccc2C[C@H]1C(=O)N1C2CCCCC2C[C@H]1C(=O)N[C@@H](CCCCN)C(=O)N[C@@H](CCCCN)C(=O)N[C@@H](CCCCN)C(=O)N[C@@H](CCCCN)C(N)=O` (stereo partly drawn) [AMP 78] (H-KL[Tic][Oic(3aξ,7aξ)]KG[Tic][Oic(3aξ,7aξ)]F[Tic][Oic(3aξ,7aξ)]KG[Tic][Oic(3aξ,7aξ)]F[Tic][Oic(3aξ,7aξ)]KG[Tic][Oic(3aξ,7aξ)]KKKK-NH2), the minimum bactericidal concentration (MBC) stood at 28.6 µM in data set [4] (BAMC 07-18), 100 µg/mL in data set [4] (setting [7]), 50 µg/mL in data set [5] (setting [8]) and 14.3 µM in data set [5] (PAO1). In addition, the “solubility in phosphate buffer” value in data set [6] was “solubility issues”. Besides, the MIC in data set [2] (BAMC 07-18) was 14.3 µM; in data set [2] (setting [7]), 50 µg/mL; in data set [3] (setting [8]), 50 µg/mL; in data set [3] (PAO1) it was 14.3 µM. Further, the “in vitro inhibitory activity” value in data set [2] (against K. pneumoniae) and in data set [3] was 50 µg/mL throughout.
